Experimental data taken from patent US20090163579A1, “Novel use of nutraceutical compositions” (priority 2006, published 2009).

Test system: C57BLKS/J db/db mice
Experiment: 3 months feeding study on muscle mass in db/db mice (NMR muscle mass, body weight, food intake)
Type: in vivo
Settings: for effect on muscle loss (in words) / muscle mass increase: db/db mice, 3 months of treatment; for effect on muscle loss (in words) / muscle mass increase / BW (g), change from baseline / Muscle (g), change from baseline: 0.08% of diet; for muscle mass increase: control reduced by 2%; for BW (g), change from baseline / Muscle (g), change from baseline / BW (g), 5 months old mice / Muscle (g), 5 months old mice: male db/db mice, after 3 months of treatment; for BW (g), 5 months old mice / Muscle (g), 5 months old mice: 0.08% of diet as feed-ad-mix; for Muscle (g), 5 months old mice: total muscle mass by NMR
Protocol: The efficacy of resveratrol, EGCG as well as the combination of both compounds on muscle mass was tested in a 3 months feeding study in C57BLKS/J db/db mice (n=20/group). C57BLKS/J db/db mice suffer from severe metabolic disorder due to a defect in the leptin receptor and loss muscle mass as they age. Muscle wasting has been associated with chronic metabolic derangements. Moreover, muscle wasting induced by a variety of means in both rodents and humans results in similar changes in muscle anatomy, cross-sectional area, function, fiber type switching, contractile protein expression, and histology. […] These agents include anabolic steroids, growth hormone, insulin-like growth factor 1, and beta adrenergic agonists. […] Therefore, the rodent model can be used to evaluate the efficacy of compounds inhibiting muscle wasting.
Male db/db mice were obtained from Jackson Laboratory (Bar Harbor, Me., USA). Adult mice at the age of 8 weeks were used in the experiment. Mice were housed individually in plastic cages with bedding and allowed free access to standard rodent food and tap water. The animal rooms were controlled for temperature (24° C.), humidity (55%), and light (12-h light-dark cycle). The animals were randomized into four groups. Resveratrol and EGCG were administered as feed-ad-mix. Corn cellulose (1% of diet) served as a carrier substance for resveratrol and EGCG as well as a placebo when used alone. Group 1 received placebo, group 2 received a diet containing 0.08% of resveratrol; group 3 received a diet containing 0.08% of EGCG; and group 4 received a diet containing 0.08% of resveratrol and 0.08% of EGCG. Body weight and food intake were determined over the course of the study. Total muscle mass was determined by nuclear magnetic resonance (NMR) measurement after 3 months of treatment. There was no difference in food intake between the groups over the study period.

Oc1ccc(C=Cc2cc(O)cc(O)c2)cc1 [Resveratrol, resveratrol]
effect on muscle loss (in words): prevents muscle loss | muscle mass increase: 6% | BW (g), change from baseline: 3.9 g | Muscle (g), change from baseline: 1.0 g | BW (g), 5 months old mice: 34.2 g | Muscle (g), 5 months old mice: 17.0 g

(−)-epigallocatechin gallate [EGCG]
effect on muscle loss (in words): prevents muscle loss | muscle mass increase: 3% | BW (g), change from baseline: 1.0 g | Muscle (g), change from baseline: 0.5 g | BW (g), 5 months old mice: 31.4 g | Muscle (g), 5 months old mice: 16.2 g
